Assay results taken from publication PMC12081029, “Structural, Spectroscopic, and Docking Analysis of N,O‐Donor Ligand Metal Complex Nanoparticles With Hypolipidemic Effects via Lipoprotein Lipase Activation in High‐Fat Diet Mice” (Chemistry & Biodiversity, 2024).
Several values for one entry are separate records, joined by “and”; a condition that tells them apart may be missing. Identical values can stand only once. Counter-ions that a name gives are not always drawn. Like-named read-outs stand apart in the source and are kept apart here.

How the values were obtained:
[1] = test system: Salmonella typhi; experiment: Agar diffusion, inhibition zone (ZOI) and activity index; format: cell-based; settings: for ZOI: 10^−3 M in DMF, 5 mm holes, 20 h at 37°C
[2] = test system: Aspergillus terreus; experiment: MIC determination
[3] = test system: Escherichia coli; experiment: MIC / MBC determination
[4] = test system: lipoprotein lipase (L. lipase); experiment: Serum L. lipase activity in high-fat diet mice (fluorometric kit); format: in vivo; settings: HFD C57BL/6 mice; for L. lipase (serum enzyme activity): 4 mg kg^−1 body weight in DMF, 3 months, mean ± SD; for mean L. lipase activity: rounded, 4 mg kg^−1 body weight
Experimental: (§1) This study employed 8‐week‐old male C57BL/6 mice of matched weight (around 20–25 g) from an inbred “genetically identical” strain. The mice were purchased from the National Research Center's Animal House. Then, they were subdivided into five groups, each group containing eight mice; four groups were treated with CETZ.2HCl (antihistamine drug) and its metal complexes, whereas one group was left untreated and classified as a control group. Animals were housed in modular plastic veterinary cages at air‐conditioned room, under pathogen‐free conditions. Mice were fed HFD, which consisted of carbs 42.0%, fat 23.0%, protein 17.0%, fiber 3.0%, minerals 5.0%, and moisture 10.0% for 3 months, together with administration of either CETZ.2HCl or its metal complexes (4 mg kg ^−1 body weight) in DMF [37]. Experiments were performed in accordance with the regulations of the Animal Care and Use Committee of the College of Veterinary Medicine, Mansoura University (MU‐ACUC), Egypt; MU‐ACUC (PHARM.R.24.02.30), complied with “Guide for the Care and Use of Laboratory Animals” (National Research Council publication 8th ed., USA, 2011).
(§2) Specimens of blood were gathered from the retro‐orbital sinus, under halothane (1.5 percent v/v halothane in oxygen) anesthesia via inhalation. The collected blood was allowed to clot, by centrifugation at 1600 rpm for 20 min, to obtain serum. Isolated sera were maintained at −80°C until tests of liver function in addition to lipid profiles were performed. For estimation of L. lipase activity, fluorometric L. lipase activity assay kit was utilized following the manufacturer's protocol (Cat. No. STA‐610, Cell BIOLABS INC., San Diego, USA). Serum T. chol. LDL, HDL, TG, ALT (alanine aminotransferase), AST (aspartate aminotransferase), and ALP (alkaline phosphatase) were examined with Roche kits using COBAS Integra 400 and COBAS Integra‐400 plus (Roche Diagnostics Limited, Switzerland).

[5] = test system: Aspergillus niger; experiment: Agar diffusion, inhibition zone (ZOI) and activity index; settings: for ZOI: 10^−3 M in DMF, 5 mm holes, 7 days at 30°C
[6] = Serum liver function enzymes in high-fat diet mice; format: in vivo; settings: HFD C57BL/6 mice, 4 mg kg^−1 body weight, 3 months, mean ± SD
Experimental: as §1, §2

[7] = test system: Bacillus subtilis; experiment: Agar diffusion, inhibition zone (ZOI) and activity index; settings: for ZOI: 10^−3 M in DMF, 5 mm holes, 20 h at 37°C
[8] = test system: Escherichia coli; experiment: as above; settings: for ZOI: 10^−3 M in DMF, 5 mm holes, 20 h at 37°C
[9] = test system: Salmonella typhi; experiment: MIC / MBC determination; format: cell-based
[10] = test system: Bacillus subtilis; experiment: MIC / MBC determination
[11] = test system: Staphylococcus aureus; experiment: MIC / MBC determination
[12] = test system: Aspergillus niger; experiment: MIC determination
[13] = test system: Aspergillus terreus; experiment: Agar diffusion, inhibition zone (ZOI) and activity index; settings: for ZOI: 10^−3 M in DMF, 5 mm holes, 7 days at 30°C; for AI: ZOI of compound / ZOI of standard (colitrimazole) × 100
[14] = test system: Staphylococcus aureus; experiment: as above; settings: for ZOI / AI: Staphylococcus aureus; for ZOI: 10^−3 M in DMF, 5 mm holes, 20 h at 37°C; for AI: ZOI of compound / ZOI of standard (ampicillin) × 100
[15] = Serum lipid profile in high-fat diet mice; format: in vivo; settings: HFD C57BL/6 mice, 4 mg kg^−1 body weight, 3 months, mean ± SD
Experimental: as §1, §2

[16] = test system: Escherichia coli; settings: cited from earlier work; for Escherichia coli (inhibition zone): in mm
[17] = test system: Staphylococcus aureus; settings: cited from earlier work; for Staphylococcus aureus (inhibition zone): in mm
[18] = test system: Bacillus subtilis; settings: cited from earlier work; for Bacillus subtillis (inhibition zone): in mm
[19] = Salmonella typhi, ZOI of compound / ZOI of standard (gentamicin) × 100
[20] = Bacillus subtilis, ZOI of compound / ZOI of standard (ampicillin) × 100
[21] = Escherichia coli, ZOI of compound / ZOI of standard (gentamicin) × 100
[22] = Table 9, preceding research ref [9]
[23] = Table 9, preceding research ref [7]
[24] = Table 9, preceding research ref [11]

| Compound | ZOI ([1]; Salmonella typhi) | AI [1, 19] | MIC [2] | MBC [3] | MIC [3] | L. lipase (serum enzyme activity) [4] | mean L. lipase activity [4] | ALP [6] | ALT [6] | AST [6] | ZOI ([7]; Bacillus subtilis) | AI [7, 20] | ZOI ([8]; Escherichia coli) | AI [8, 21] | MIC [10] | ZOI [13] | AI [13] | HDL [15] | LDL [15] | Total Chol. [15] | also measured |
| --- | --- | --- | --- | --- | --- | --- | --- | --- | --- | --- | --- | --- | --- | --- | --- | --- | --- | --- | --- | --- | --- |
| O=C(O)COCCN1CCN(C(c2ccccc2)c2ccc(Cl)cc2)CC1 (racemic) [CETZ.2HCl, (RS)‐2‐[2‐[4‐[(4‐chlorophenyl)phenylmethyl]piperazine‐L‐yl]‐ethoxy]acetic acid, dihydrochloride, reference compound] | 7.7 ±0.58 mm | 37.2% | 0.025 µg/mL and 0.025 ± 0.01 µg/mL | 0.091 µg/mL | 0.075 ± 0.01 µg/mL | 104.88± 26.5 U/L and 104.88 U/L | 104.9 U L^−1 | 90.5 ± 16.79 U L^−1 | 245.63 ± 43.99 U L^−1 | 345.5 ± 57.73 U L^−1 | 12.1 ± 0.15 mm | 42.6% | 8.5 ±0.50 mm | 43.6% | 0.05 µg/mL | 10.3 ±0.27 mm | 58.9% | 85.25 ± 6.23 mg/dL | 93.25 ± 8.15 mg/dL | 230.38 mg/dL | ZOI ([5]; Aspergillus niger): 12.5 ±0.36 mm; MBC ([9]; Salmonella enterica, TYPHI): 0.037 ± 0.01 µg/mL; MBC [11]: 0.049 µg/mL and 0.049 ± 0.01 µg/mL; MIC [11]: 0.025 µg/mL and 0.025 ± 0.02 µg/mL; MIC [12]: 0.025 µg/mL and 0.025 ± 0.01 µg/mL; ZOI [14]: 9.4 ± 0.02 mm; AI [14]: 41.4%; Trig [15]: 80.5 ± 10.18 mg/dL |
| O.c1cnc2c(c1)ccc1cccnc12 [Phen.H2O, 1,10‐phenanthroline monohydrate] |  |  |  |  |  |  |  |  |  |  | 1.1 ± 0.16 mm | 3.87% |  |  | 0.025 µg/mL and 0.025 ± 0.03 µg/mL |  |  |  |  |  | MBC [10]: 0.032 µg/mL |
| O.O.O.O=C([O-])COCCN1CCN(C(c2ccccc2)c2ccc(Cl)cc2)CC1.O=C([O-])COCCN1CCN(C(c2ccccc2)c2ccc(Cl)cc2)CC1.[Cu+2] (stereo not drawn) [[Cu(CETZ)2(H2O)2].H2O] |  |  |  |  |  |  |  |  |  |  |  |  |  |  |  |  |  |  |  |  | Escherichia coli (inhibition zone) [16, 22]: 13.43 ± 0.39; Staphylococcus aureus (inhibition zone) [17, 22]: 15.21 ± 0.46; Bacillus subtillis (inhibition zone) [18, 22]: 18.31 ± 0.55 |
| CC(N)C(=O)[O-].O.O=C([O-])COCCN1CCN(C(c2ccccc2)c2ccc(Cl)cc2)CC1.[Cu+2] (stereo not drawn) [[Cu(CETZ)(Ala)(H2O)]] |  |  |  |  |  |  |  |  |  |  |  |  |  |  |  |  |  |  |  |  | AI ([16]; Table 9, Escherichia coli ref [7]): 52.91; Escherichia coli (inhibition zone) [16, 23]: 11.8 ± 0.5; AI ([17]; Table 9, Staphylococcus aureus ref [7]): 56.93; Staphylococcus aureus (inhibition zone) [17, 23]: 15.6 ± 0.4; AI ([18]; Table 9, Bacillus subtillis ref [7]): 42.9; Bacillus subtillis (inhibition zone) [18, 23]: 13.9 ± 0.3 |
| O.O.O=C([O-])COCCN1CCN(C(c2ccccc2)c2ccc(Cl)cc2)CC1.O=[N+]([O-])[O-].[Cu+2].c1cnc2c(c1)ccc1cccnc12 (stereo not drawn) [complex (1), [Cu(CETZ)(Phen)(H2O)2(NO3)]] | 30.0 ^+ ^3 ±0.10 mm | 144.9% | 0.075 µg/mL and 0.075 ± 0.005 µg/mL | 0.15 0.02 µg mL^−1 | 0.1 ± 0.006 µg/mL | 127.88 U/L | 127.9 U L^−1 | 88 ± 12.64 U L^−1 | 228.63 ± 50.57 U L^−1 | 274.63 ± 36.40^NS U L^−1 | 23.3 ^+ ^2 ± 0.66 mm | 82.04% | 32.5 ^+ ^3 ±0.30 mm | 166.6% | 0.050 ± 0.007 µg/mL | 10.5^NS ±1.06 mm | 60.0% | 80.75 ± 8.26 mg/dL | 60.5 ± 5.78 mg/dL | 138.88 ± 10.92 mg/dL | AI ([1]; Table 9, Salmonella typhi, this work): 59.9; Salmonella typhi (inhibition zone) ([1]; Table 9, this work): 30.0 ^+ ^3 ± 0.10; L. lipase (serum enzyme activity) ([4]; listed as Cu-CETZ Complex): 127.88±11.72 U/L; ZOI ([5]; Aspergillus niger): 13.1^NS ±0.38 mm; AI ([5]; Aspergillus niger, ZOI of compound / ZOI of standard (colitrimazole) × 100): 66.16%; AI ([5]; Table 9, Aspergillus niger, this work): 88.89; Aspergillus niger (inhibition zone) ([5]; Table 9, this work): 13.1^NS ± 0.38; AI ([7]; Table 9, Bacillus subtillis, this work): 55.3; Bacillus subtillis (inhibition zone) ([7]; Table 9, this work): 23.3 ^+ ^2 ± 0.66; AI ([8]; Table 9, Escherichia coli, this work): 113.3; Escherichia coli (inhibition zone) ([8]; Table 9, this work): 32.5 ^+ ^3 ± 0.30; MBC ([9]; Salmonella typhi): 0.081 ± 0.01 µg/mL; MIC ([9]; Salmonella typhi): 0.075 µg/mL and 0.075 ± 0.006 µg/mL; MBC [11]: 0.086 µg/mL and 0.086 ± 0.004 µg/mL; MIC [11]: 0.075 µg/mL and 0.075 ± 0.03 µg/mL; MIC [12]: 0.050 µg/mL and 0.050 ± 0.02 µg/mL; ZOI [14]: 17.3 ^+ ^2 ±0.33 mm; AI [14]: 76.2%; Staphylococcus aureus (inhibition zone) ([14]; Table 9, this work): 17.3 ^+ ^2 ± 0.33; Trig [15]: 77.25 ± 9.3 mg/dL |
| CC(=O)[O-].O.O.O=C([O-])COCCN1CCN(C(c2ccccc2)c2ccc(Cl)cc2)CC1.[Cd+2].c1cnc2c(c1)ccc1cccnc12 (stereo not drawn) [complex (3), [Cd(CETZ)(Phen)(H2O)2(CH3COO)]] | 19.5 ^+ ^2 ±0.85 mm | 94.2% | 0.100 µg/mL and 0.1 ± 0.01 µg/mL | 0.23 ± 0.053 µg/mL | 0.1 ± 0.02 µg/mL | 52.38 U/L | 52.4 U L^−1 | 123.63 ± 11.45 U L^−1 | 283.75 ± 23.49 U L^−1 | 374.88 ± 36.33 U L^−1 | 32.0 ^+ ^3 ±0.68 mm | 112.68% | 28.5 ^+ ^2 ±0.83 mm | 146.1% | 0.075 ± 0.006 µg/mL | 14.7 ^+ ^1 ±0.55 mm | 84.0% | 44.63 ± 12.92 mg/dL | 89.25 ± 9.45 mg/dL | 283.75 mg/dL | L. lipase (serum enzyme activity) ([4]; listed as Cd-CETZ Complex): 52.38±9.6 U/L; MBC ([9]; Salmonella typhi): 0.066 ± 0.014 µg/mL; MIC ([9]; Salmonella typhi): 0.050 µg/mL and 0.050 ± 0.01 µg/mL; Trig [15]: 188.75 mg/dL |
| [Cu(AMBI)(CETZ)(NO3)(H2O)2] |  |  |  |  |  |  |  |  |  |  |  |  |  |  |  |  |  |  |  |  | AI ([16]; Table 9, Escherichia coli ref [11]): 95.10; Escherichia coli (inhibition zone) [16, 24]: 21.3 ± 0.4; AI ([17]; Table 9, Staphylococcus aureus ref [11]): 96.72; Staphylococcus aureus (inhibition zone) [17, 24]: 26.5 ± 0.6; AI ([18]; Table 9, Bacillus subtillis ref [11]): 89.2; Bacillus subtillis (inhibition zone) [18, 24]: 28.9 ± 0.3 |
